Target: PDEδ (Homo sapiens, UniProt O43924)
Assay: Fluorescence polarization competition binding assay (displacement titration of labeled Atorvastatin-probe)
Conditions: fluorescence polarization assay, displacement of fluorescent-tagged Atorvastatin analog from PDEδ
From the text: Example C.2: Displacement titrations of labeled Atorvastatin-probe for the determination of KD values:
Table 3. KD values for compounds of general formula (I) as determined by means of fluorescence polarization assay

With `Cc1c(Cl)cccc1NC(=O)CCCn1nc(C)c2c(C)n(-c3ccccc3)nc2c1=O` [Compound 29, N-(3-chloro-2-methylphenyl)-4-(3,4-dimethyl-7-oxo-2-phenyl-2H-pyrazolo[3,4-d]pyridazin-6(7H)-yl)butanamide] the Kd was < 30 nM.

Same assay, conditions: fluorescence polarization assay, displacement of fluorescent-tagged Atorvastatin analog from PDEδ; read-out: KD

`Cc1c2cnn(-c3ccccc3)c(=O)c2c(C)n1CCCC(=O)NCc1ccccc1` [Compound 1, N-benzyl-4-(5,7-dimethyl-1-oxo-2-phenyl-1H-pyrrolo[3,4-d]pyridazin-6(2H)-yl)butanamide] and `Cc1c2cnn(-c3ccccc3)c(=O)c2c(C)n1CCCC(=O)NCc1cccc(Cl)c1` [Compound 3, N-(3-chlorobenzyl)-4-(5,7-dimethyl-1-oxo-2-phenyl-1H-pyrrolo[3,4-d]pyridazin-6(2H)-yl)butanamide] fall in the same range of Kd: 30 to 100 nM for the first, 30 to 100 nM for the second.

`COc1cccc(CNC(=O)CCCn2c(C)c3cnn(-c4ccccc4)c(=O)c3c2C)c1` [Compound 2, 4-(5,7-dimethyl-1-oxo-2-phenyl-1H-pyrrolo[3,4-d]pyridazin-6(2H)-yl)-N-(3-methoxybenzyl)butanamide] and `Cc1c2cnn(-c3ccccc3)c(=O)c2c(C)n1CCCC(=O)NCc1ccc(Cl)cc1` [Compound 5, N-(4-chlorobenzyl)-4-(5,7-dimethyl-1-oxo-2-phenyl-1H-pyrrolo[3,4-d]pyridazin-6(2H)-yl)butanamide] fall in the same range of Kd: 30 to 100 nM for the first, 30 to 100 nM for the second.

Compared with `Cc1c2cnn(-c3ccccc3)c(=O)c2c(C)n1CCCC(=O)NCc1ccccc1Cl` [Compound 4, N-(2-chlorobenzyl)-4-(5,7-dimethyl-1-oxo-2-phenyl-1H-pyrrolo[3,4-d]pyridazin-6(2H)-yl)butanamide], `Cc1c2cnn(-c3ccccc3)c(=O)c2c(C)n1CCCC(=O)NCc1ccccn1` [Compound 8, 4-(5,7-dimethyl-1-oxo-2-phenyl-1H-pyrrolo[3,4-d]pyridazin-6(2H)-yl)-N-(pyridin-2-ylmethyl)butanamide] is higher in Kd: < 30 nM for the first, 100 to 1000 nM for the second. The first binds more tightly here.

`Cc1c2cnn(-c3ccccc3)c(=O)c2c(C)n1CCCC(=O)NCc1cccs1` [Compound 6, 4-(5,7-dimethyl-1-oxo-2-phenyl-1H-pyrrolo[3,4-d]pyridazin-6(2H)-yl)-N-(thiophen-2-ylmethyl)butanamide] and `Cc1c2cnn(-c3ccccc3)c(=O)c2c(C)n1CCCC(=O)NCc1ccco1` [Compound 7, 4-(5,7-dimethyl-1-oxo-2-phenyl-1H-pyrrolo[3,4-d]pyridazin-6(2H)-yl)-N-(furan-2-ylmethyl)butanamide] fall in the same range of Kd: 100 to 1000 nM for the first, 100 to 1000 nM for the second.

First: Cc1c2cnn(-c3ccccc3)c(=O)c2c(C)n1CCCC(=O)NC1CC1 [Compound 9, N-cyclopropyl-4-(5,7-dimethyl-1-oxo-2-phenyl-1H-pyrrolo[3,4-d]pyridazin-6(2H)-yl)butanamide]
Second: Cc1c2cnn(-c3ccccc3)c(=O)c2c(C)n1CCCC(=O)NC1CCCC1 [Compound 10, N-cyclopentyl-4-(5,7-dimethyl-1-oxo-2-phenyl-1H-pyrrolo[3,4-d]pyridazin-6(2H)-yl)butanamide]
The Kd of the first is higher: 100 to 1000 nM for the first, 30 to 100 nM for the second. The second binds more tightly here.

`Cc1c2cnn(-c3ccccc3)c(=O)c2c(C)n1CCCC(=O)NC1CCCCC1` [Compound 11, N-cyclohexyl-4-(5,7-dimethyl-1-oxo-2-phenyl-1H-pyrrolo[3,4-d]pyridazin-6(2H)-yl)butanamide] and `Cc1c2cnn(-c3ccccc3)c(=O)c2c(C)n1CCCC(=O)NC1CCCCC1C` (centres unmarked) [Compound 13, 4-(5,7-dimethyl-1-oxo-2-phenyl-1H-pyrrolo[3,4-d]pyridazin-6(2H)-yl)-N-(2-methylcyclohexyl)butanamide] cannot be ordered by Kd: < 30 nM for the first, < 30 nM for the second.

`Cc1c2cnn(-c3ccccc3)c(=O)c2c(C)n1CCCC(=O)NC1CCC(C)CC1` (centres unmarked) [Compound 12, 4-(5,7-dimethyl-1-oxo-2-phenyl-1H-pyrrolo[3,4-d]pyridazin-6(2H)-yl)-N-(4-methylcyclohexyl)butanamide] and `Cc1c2cnn(-c3ccccc3)c(=O)c2c(C)n1CCCC(=O)NC1CCCC(C)C1C` (centres unmarked) [Compound 14, 4-(5,7-dimethyl-1-oxo-2-phenyl-1H-pyrrolo[3,4-d]pyridazin-6(2H)-yl)-N-(2,3-dimethylcyclohexyl)butanamide] cannot be ordered by Kd: < 30 nM for the first, < 30 nM for the second.

Compared with `Cc1c2cnn(-c3ccccc3)c(=O)c2c(C)n1CCCc1nc2ccccc2n1Cc1ccccc1` [Compound 15, 6-(3-(1-benzyl-1H-benzo[d]imidazol-2-yl)propyl)-5,7-dimethyl-2-phenyl-2,6-dihydro-1H-pyrrolo[3,4-d]pyridazin-1-one], `Cc1c2cnn(-c3ccccc3)c(=O)c2c(C)n1CCCc1nc(-c2ccccc2)no1` [Compound 16, 5,7-dimethyl-2-phenyl-6-(3-(3-phenyl-1,2,4-oxadiazol-5-yl)propyl)-2,6-dihydro-1H-pyrrolo[3,4-d]pyridazin-1-one] is higher in Kd: < 30 nM for the first, 100 to 1000 nM for the second.

First: Cc1ccc(-c2noc(CCCn3c(C)c4cnn(-c5ccccc5)c(=O)c4c3C)n2)cc1 [Compound 17, 5,7-dimethyl-2-phenyl-6-(3-(3-(p-tolyl)-1,2,4-oxadiazol-5-yl)propyl)-2,6-dihydro-1H-pyrrolo[3,4-d]pyridazin-1-one]
Second: Cc1c2cnn(-c3ccccc3)c(=O)c2c(C)n1CCCc1nc(-c2ccc(F)cc2)no1 [Compound 21, 6-(3-(3-(4-fluorophenyl)-1,2,4-oxadiazol-5-yl)propyl)-5,7-dimethyl-2-phenyl-2,6-dihydro-1H-pyrrolo[3,4-d]pyridazin-1-one]
The Kd of the first is higher: > 1000 nM for the first, 100 to 1000 nM for the second. The second binds more tightly here.

`COc1ccc(-c2noc(CCCn3c(C)c4cnn(-c5ccccc5)c(=O)c4c3C)n2)cc1` [Compound 18, 6-(3-(3-(4-methoxyphenyl)-1,2,4-oxadiazol-5-yl)propyl)-5,7-dimethyl-2-phenyl-2,6-dihydro-1H-pyrrolo[3,4-d]pyridazin-1-one] and `COc1ccc(-c2nnc(CCCn3c(C)c4cnn(-c5ccccc5)c(=O)c4c3C)o2)cc1` [Compound 24, 6-(3-(5-(4-methoxyphenyl)-1,3,4-oxadiazol-2-yl)propyl)-5,7-dimethyl-2-phenyl-2,6-dihydro-1H-pyrrolo[3,4-d]pyridazin-1-one] cannot be ordered by Kd: > 1000 nM for the first, > 1000 nM for the second.

First: COc1ccc(OC)c(-c2noc(CCCn3c(C)c4cnn(-c5ccccc5)c(=O)c4c3C)n2)c1 [Compound 19, 6-(3-(3-(2,5-dimethoxyphenyl)-1,2,4-oxadiazol-5-yl)propyl)-5,7-dimethyl-2-phenyl-2,6-dihydro-1H-pyrrolo[3,4-d]pyridazin-1-one]
Second: COc1ccccc1-c1nnc(CCCn2c(C)c3cnn(-c4ccccc4)c(=O)c3c2C)o1 [Compound 25, 6-(3-(5-(2-methoxyphenyl)-1,3,4-oxadiazol-2-yl)propyl)-5,7-dimethyl-2-phenyl-2,6-dihydro-1H-pyrrolo[3,4-d]pyridazin-1-one]
The Kd of the first is higher: > 1000 nM for the first, 100 to 1000 nM for the second. The second binds more tightly here.

Compared with `Cc1c2cnn(-c3ccccc3)c(=O)c2c(C)n1CCCc1nc(-c2ccc(C(F)(F)F)cc2)no1` [Compound 20, 5,7-dimethyl-2-phenyl-6-(3-(3-(4-(trifluoromethyl)phenyl)-1,2,4-oxadiazol-5-yl)propyl)-2,6-dihydro-1H-pyrrolo[3,4-d]pyridazin-1-one], `Cc1c2cnn(-c3ccccc3)c(=O)c2c(C)n1CCCc1nnc(-c2ccc(C(F)(F)F)cc2)o1` [Compound 26, 5,7-dimethyl-2-phenyl-6-(3-(5-(4-(trifluoromethyl)phenyl)-1,3,4-oxadiazol-2-yl)propyl)-2,6-dihydro-1H-pyrrolo[3,4-d]pyridazin-1-one] is lower in Kd: > 1000 nM for the first, 100 to 1000 nM for the second. The second binds more tightly here.

First: Cc1c2cnn(-c3ccccc3)c(=O)c2c(C)n1CCCc1nnc(-c2ccccc2)o1 [Compound 22, 5,7-dimethyl-2-phenyl-6-(3-(5-phenyl-1,3,4-oxadiazol-2-yl)propyl)-2,6-dihydro-1H-pyrrolo[3.4-d]pyridazin-1-one]
Second: Cc1c2cnn(-c3ccccc3)c(=O)c2c(C)n1CCCc1nnc(-c2ccncc2)o1 [Compound 28, 5,7-dimethyl-2-phenyl-6-(3-(5-(pyridin-4-yl)-1,3,4-oxadiazol-2-yl)propyl)-2,6-dihydro-1H-pyrrolo[3,4-d]pyridazin-1-one]
The Kd of the first is lower: 100 to 1000 nM for the first, > 1000 nM for the second.

First: Cc1ccc(-c2nnc(CCCn3c(C)c4cnn(-c5ccccc5)c(=O)c4c3C)o2)cc1 [Compound 23, 5,7-dimethyl-2-phenyl-6-(3-(5-(p-tolyl)-1,3,4-oxadiazol-2-yl)propyl)-2,6-dihydro-1H-pyrrolo[3,4-d]pyridazin-1-one]
Second: Cc1c2cnn(-c3ccccc3)c(=O)c2c(C)n1CCCc1nnc(-c2ccc(F)cc2)o1 [Compound 27, 6-(3-(5-(4-fluorophenyl)-1,3,4-oxadiazol-2-yl)propyl)-5,7-dimethyl-2-phenyl-2,6-dihydro-1H-pyrrolo[3,4-d]pyridazin-1-one]
The Kd of the first is higher: > 1000 nM for the first, 100 to 1000 nM for the second. The second binds more tightly here.

`Cc1nn(CCCC(=O)NCc2ccco2)c(=O)c2nn(-c3ccccc3)c(C)c12` [Compound 30, 4-(3,4-dimethyl-7-oxo-2-phenyl-2H-pyrazolo[3,4-d]pyridazin-6(7H)-yl)-N-(furan-2-ylmethyl)butanamide] and `Cc1nn(CCCC(=O)NCc2ccccc2)c(=O)c2nn(-c3ccccc3)c(C)c12` [Compound 31, N-benzyl-4-(3,4-dimethyl-7-oxo-2-phenyl-2H-pyrazolo[3,4-d]pyridazin-6(7H)-yl)butanamide] fall in the same range of Kd: 30 to 100 nM for the first, 30 to 100 nM for the second.

`COc1ccc(CNC(=O)CCCn2nc(C)c3c(C)n(-c4ccccc4)nc3c2=O)cc1` [Compound 32, 4-(3,4-dimethyl-7-oxo-2-phenyl-2H-pyrazolo[3,4-d]pyridazin-6(7H)-yl)-N-(4-methoxybenzyl)butanamide] and `Cc1ccc(CNC(=O)CCCn2nc(C)c3c(C)n(-c4ccccc4)nc3c2=O)cc1` [Compound 35, 4-(3,4-dimethyl-7-oxo-2-phenyl-2H-pyrazolo[3,4-d]pyridazin-6(7H)-yl)-N-(4-methylbenzyl)butanamide] fall in the same range of Kd: 30 to 100 nM for the first, 30 to 100 nM for the second.

`COc1cccc(CNC(=O)CCCn2nc(C)c3c(C)n(-c4ccccc4)nc3c2=O)c1` [Compound 33, 4-(3,4-dimethyl-7-oxo-2-phenyl-2H-pyrazolo[3,4-d]pyridazin-6(7H)-yl)-N-(3-methoxybenzyl)butanamide] and `COc1ccccc1CNC(=O)CCCn1nc(C)c2c(C)n(-c3ccccc3)nc2c1=O` [Compound 34, 4-(3,4-dimethyl-7-oxo-2-phenyl-2H-pyrazolo[3,4-d]pyridazin-6(7H)-yl)-N-(2-methoxybenzyl)butanamide] fall in the same range of Kd: 30 to 100 nM for the first, 30 to 100 nM for the second.

Source: EP2955182A1, “Pyridazinones for the treatment of cancer” (Max-Planck-Gesellschaft zur Förderung der Wissenschaften …, priority 2014, dated 2015)
